# Tests used:
# Format in all cases: cell-based, human
# P185 BCR-ABL = experiment: Western blotting with anti-Abl monoclonal antibody 8E9 of treated SUP-B15 cells
# Method: (§1) SUP-B15 cells express p185 BCR-ABL; they were derived from a patient with Philadelphia chromosome-positive ALL. One-tenth of the cells harvested in the study shown in FIG. 13 was assayed for Bcr-Abl expression by Western blotting with the anti-Abl monoclonal antibody 8E9. […] Similarly, the Abl protein was reduced about 26% in the anti-sense treated culture compared to sense. Quantitation was done by a densitometer SI unit (Molecular Dynamics).
# (§2) In this study, equal amounts of the sense and the antisense oligonucleotide treated B15 cells were analyzed.
# p160 BCR = experiment: Immunokinase assay with anti-BCR (1256-1271) on oligonucleotide treated SUP-B15 cells
# Method: (§3) SUP B15 cells were treated with anti-sense BCR oligonucleotides as in FIG. 12. Equal amounts of cells processed from sense and antisense treated cultures were harvested at day 7. Cells were analyzed for Bcr protein and Bcr/Bcr-Abl complexes by assaying with an antibody to the carboxy terminal of Bcr, as described (Liu et al., 1993). Lane 1 is an SDS gel pattern of the sense treated culture; lane 2 is the assay performed with peptide-blocked antibody. Lane 3 is the pattern from anti-sense treated culture; lane 4 is the peptide-blocked control. […] Quantitation measurements indicate that the level of Bcr protein was reduced about 10-fold by antisense treatment compared to sense, when normalized for the amount of Abl protein in the cultures.
# The effects of the sense and antisense 3′ BCR oligonucleotides were tested on BCR expression in SUP-B15 cells, a cell line derived from a Ph^1-positive acute lymphocytic leukemia patient that expresses p185 BCR-ABL. Immunokinase assays were performed with anti-BCR (1256-1271) peptide antibody (the antibody detects Bcr proteins but not Bcr-Abl proteins) to determine the level of BCR expression in B15 cells after 7 days treatment with either the sense or antisense 3′ BCR oligonucleotides (FIG. 13, lanes 1 and 3).
# (§4) These antibodies detect Bcr directly but not Bcr-Abl protein. However because Bcr can complex with Bcr-Abl, this assay also detects Bcr-Abl which is co-precipitated along with Bcr.
# Incubation of these immune complexes with labeled ATP causes tyrosine phosphorylation of Bcr by Bcr-Abl and autophosphorylation of Bcr-Abl (Liu et al., 1993). […] Using Abl Western blot data as an internal control for mass, the specific reduction in Bcr is estimated to be about 10-fold.
# c-Abl = experiment: Western blotting with anti-Abl monoclonal antibody 8E9 of treated SUP-B15 cells
# Method: as §1
# Using c-Abl as an internal control, the actual reduction of p160 BCR in B15 cells by the antisense treatment is about 10 fold.
# [1] = system: p160 BCR/p185 BCR-ABL complexes; experiment: Co-precipitated Bcr-Abl in anti-BCR (1256-1271) immunokinase assay of treated SUP-B15 cells; settings: antisense compared to sense treated
# Method: as §3, §2, §4
# M3.16 cells = experiment: Growth of M3.16 cells, trypan blue exclusion; settings: DMEM 10% FCS, 10 μM at day 1, half at day 5, light microscopy at day 9
# Method: FIG. 20B, M3.16 cells cultured in 10% FCS containing DMEM media with either the 3′ BCR antisense oligonucleotides (open squares) or the sense oligonucleotide (closed squares) as above. Oligonucleotides were added at day 1 at a final concentration of 10 μM and added again at day 5 at half of the initial concentration. Cell viability was determined by trypan blue dye exclusion. The data are the mean +/−SEM of a triplicate analysis.
# For this particular study, the cell number was followed up for a longer period of time (11 days) and oligonucleotides were added again at day 5 at half of the initial concentration.
# SUP-B15 cells [2] = experiment: Survival of SUP-B15 cells in low serum, trypan blue exclusion; settings: 5% FCS, 10 μM
# Method: SUP-B15 cells (2×10^6 cells) were maintained in RPMI medium containing 5% fetal calf serum. Cells will not grow under these conditions and will slowly die off since cell growth requires 20% serum. Cells were treated with the 3′ BCR anti-sense (open squares) or sense oligo (closed squares) at a concentration of 10 μM. The number of viable cells was determined by trypan blue dye exclusion. The data are expressed as the mean (+/−SEM) of three replicates.
# B15 cells were cultured in a low serum containing media [5% fetal calf serum (FCS)]. These cells normally require 20% FCS. A batch of B15 cells (2.2×10^6/ml) was cultured in RPMI containing 5% FCS. 200 μl of this suspension was seeded into each well of a 96 well culture plate. Either the antisense or sense oligonucleotides were added to the culture at a final concentration of 10 μM. The cell numbers were determined as an average of the triplicates and plotted in FIG. 14.
# SUP-B15 cells [3] = experiment: Growth of SUP-B15 cells, trypan blue exclusion
# Method: FIG. 20A, B15 cells cultured in 20% FCS containing RPMI media with either the 3′ BCR antisense oligonucleotides (10 μM at day 1) (open squares) or the sense oligonucleotides (10 μM at day 1) (closed squares).
# The biological effects of the 3′ BCR antisense oligonucleotide treatment were tested on SUP-B15 cells. SUP-B15 cells were seeded in triplicate wells at a concentration of 1.6×10^5 cells/ml in a 200 μl volume of RPMI media supplemented with 20% FCS. Oligonucleotides were added to the cells at a final concentration of 10 μM. Cell number was monitored by trypan blue exclusion assay for 9 days. The mean cell number of the triplicates was determined each day (FIG. 20A).
substance,measurement,setting,value
"5′ATCATCACCGACACATCC 3′ (phosphotriester linkages at both ends, further chemistry not given here) [3′ BCR antisense oligonucleotide]","Reduction in Bcr-Abl protein, anti-sense compared to sense","P185 BCR-ABL; Western blot 8E9, densitometer",35%
same,Expression of p185 BCR-ABL,P185 BCR-ABL; Western blot with anti-Abl monoclonal antibody,not significantly altered
same,"Reduction of Bcr-Abl level, antisense versus sense treated cells",P185 BCR-ABL; quantitation of FIG. 12,about 1.6 fold
same,"Level of BCR protein, antisense compared with sense treated cells",p160 BCR; 7 days treatment,much lower levels
same,Reduction of p160 BCR normalized for the amount of Abl protein (c-Abl as internal control),"p160 BCR; day 7, antisense compared to sense",about 10 fold
same,"Reduction of p160 BCR, antisense versus sense treated cells","p160 BCR; day 7, densitometer quantitation of FIG. 13 lanes 1 and 3",about 14 times
same,Reduction of the amount of Bcr by anti-sense,"p160 BCR; seven days, phosphorimager analyses",about 14 fold
same,"Reduction in Abl protein, anti-sense compared to sense","c-Abl; Western blot 8E9, densitometer",about 26%
same,"Reduction of c-Abl level, antisense versus sense treated cells",c-Abl; quantitation of FIG. 12,~1.35 fold
same,Amount of p160 BCR/p185 BCR-ABL complexes,[1],reduced
same,Confluence compared to sense treated cells,M3.16 cells,more confluent
same,Survival compared to sense oligonucleotide treatment,SUP-B15 cells [2],increased survival
same,Number of viable cells relative to sense-treated cells,SUP-B15 cells [2]; after five days of treatment,about twice
same,Growth density compared to sense oligonucleotide treatment,"SUP-B15 cells [3]; RPMI 20% FCS, 10 μM, 9 days",sustained a higher growth density
same,Live cells relative to sense treated cultures,SUP-B15 cells [3]; seven days in culture,twice
